Source: patent US20220081422A1 (Janssen Biotech, Inc., priority 2019, published 2022)

Tests used:
[1] = molecular target: T1, human DHODH (Homo sapiens, UniProt Q02127); assay: DHODH enzymatic assay (DCIP absorbance, end-point); assay type: biochemical; conditions: purified human DHODH, DCIP as final electron acceptor, end-point mode; read-out: hDHODH IC50
T1 construct: purchased Proteros PR-0044
Method: In vitro Assay: DHODH enzymatic assay
To detect DHODH enzyme activities, dichloroindophenol (DCIP) is added as the final electron acceptor in the assay. DCIP can accept electrons from the reduced coenzyme Q generated in the assay, or from dihydroorotate (DHO) via FMN by binding presumably to the ubiquinone pocket. […] The assay buffer contained […], pH 7.5, 150 mM NaCl, 0.5 mM EDTA, and 0.1% Triton X-100 in MilliQ water. Substrate consisting of 20 mM DHO, 5 mM CoQ6, and 1 mM DCIP in assay buffer, initiates the reaction. […] Absorbance measurements were obtained using the BMG Phera Star plate-reading spectrophotometer. Purified human DHODH was purchased from Proteros (cat. No. PR-0044). Chemicals were purchased from Sigma-Aldrich, Teknova, and Avanti Polar Lipids. Liquid handling was performed using Labcyte Echo and Formulatrix Tempest.

[2] = test system: MOLM-13 cells; assay: MOLM-13 cellular assay (CellTiter-Glo cell viability); assay type: cell-based; conditions: 72 hours exposure, cell viability by CellTiter-Glo
Method: In Vitro Assay: MOLM-13 Cellular Assay
MOLM-13 cells were obtained from DSMZ and were maintained in RPMI 1640+Glutamax+25 mM HEPES (Invitrogen, catalog number 72400) supplemented with 10% heat inactivated fetal bovine serum (FBS; Invitrogen, catalog number 16140). The day prior to assay set-up, cells were pelleted, resuspended in fresh media, counted, and cells were plated at 0.4×10^6 cell/mL in a T150 flask. On the day of the assay, cells were pelleted, resuspend in fresh media, counted and seeded at 5,000 cells/well in white opaque 96-well tissue culture treated microplates (Perkin Elmer, catalog number 6005680). Cells were exposed to different concentrations of test compounds at 37° C., 5% CO2 for 72 hours immediately after seeding. Cell viability was acquired on a Perkin Elmer Envision 2104 multilabel reader using the CellTiter-Glo assay (Promega) according to the manufacturer's instructions.

T1 sequence (Q02127 whole entry): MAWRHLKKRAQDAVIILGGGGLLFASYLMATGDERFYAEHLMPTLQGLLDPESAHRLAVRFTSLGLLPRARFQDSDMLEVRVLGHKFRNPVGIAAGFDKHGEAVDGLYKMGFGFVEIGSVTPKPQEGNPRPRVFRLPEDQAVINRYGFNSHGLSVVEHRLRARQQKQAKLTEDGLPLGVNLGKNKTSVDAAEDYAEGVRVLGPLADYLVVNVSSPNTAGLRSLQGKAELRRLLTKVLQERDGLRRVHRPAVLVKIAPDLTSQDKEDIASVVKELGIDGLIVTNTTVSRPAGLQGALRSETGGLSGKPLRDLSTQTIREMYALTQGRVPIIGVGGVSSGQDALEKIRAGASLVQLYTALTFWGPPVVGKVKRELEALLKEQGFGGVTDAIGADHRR

| Compound | IC50 [1] [nM] | IC50 ([2]; Homo sapiens, MOLM-13, 72 h) [nM] | IC50 [2] [nM] |
| --- | --- | --- | --- |
| CCn1c(CO)nn(-c2nc3c(cc2F)C(=O)N(c2c(F)cccc2Cl)CN3C2CCC2)c1=O [Example 7, 3-(2-chloro-6-fluorophenyl)-1-cyclobutyl-7-(4-ethyl-3-(hydroxymethyl)-5-oxo-4,5-dihydro-1H-1,2,4-triazol-1-yl)-6-fluoro-2,3-dihydropyrido[2,3-d]pyrimidin-4(1H)-one] | 2.6 | 1.7 |  |
| CCn1c(CO)nn(-c2cc3c(cc2F)C(=O)N(c2c(F)cccc2Cl)CN3[C@@H](C)C2CCCCC2)c1=O [Example 17, (S)-3-(2-Chloro-6-fluorophenyl)-1-(1-cyclohexylethyl)-7-(4-ethyl-3-(hydroxymethyl)-5-oxo-4,5-dihydro-1H-1,2,4-triazol-1-yl)-6-fluoro-2,3-dihydroquinazolin-4(1H)-one] | 0.1 | < 1.69 |  |
| CCn1c(CO)nn(-c2nc3c(cc2F)C(=O)N(c2c(F)cccc2Cl)CN3[C@@H](C)C2OCCCO2)c1=O [Example 23, (S)-1-(1-(1,3-Dioxan-2-yl)ethyl)-3-(2-chloro-6-fluorophenyl)-7-(4-ethyl-3-(hydroxymethyl)-5-oxo-4,5-dihydro-1H-1,2,4-triazol-1-yl)-6-fluoro-2,3-dihydropyrido[2,3-d]pyrimidin-4(1H)-one] | 3 | 6.64 |  |
| CCn1c(CO)nn(-c2cc3c(cc2F)C(=O)N(c2c(F)cncc2C#N)CN3C(C)C)c1=O [Example 27, 4-(7-(4-Ethyl-3-(hydroxymethyl)-5-oxo-4,5-dihydro-1H-1,2,4-triazol-1-yl)-6-fluoro-1-isopropyl-4-oxo-1,4-dihydroquinazolin-3(2H)-yl)-5-fluoronicotinonitrile] | 30 | 48.1 |  |
| CCn1c(CO)nn(-c2ccc3c(c2)C(C(C)C)CN(c2cccc(F)c2)C3=O)c1=O (racemic) [Example 10, Racemic-6-(4-Ethyl-3-(hydroxymethyl)-5-oxo-4,5-dihydro-1H-1,2,4-triazol-1-yl)-2-(3-fluorophenyl)-4-isopropyl-3,4-dihydroisoquinolin-1(2H)-one] | 190 | > 3 |  |
| CCC[C@H](C)N1CN(c2c(F)cccc2Cl)C(=O)c2cc(F)c(-n3nc(CO)n(CC)c3=O)nc21 [Example 24, (S)-3-(2-Chloro-6-fluorophenyl)-7-(4-ethyl-3-(hydroxymethyl)-5-oxo-4,5-dihydro-1H-1,2,4-triazol-1-yl)-6-fluoro-1-(pentan-2-yl)-2,3-dihydropyrido[2,3-d]pyrimidin-4(1H)-one] | 0.4 | < 1.69 |  |
| C=C(C)C1CN(c2cc(C)ccc2F)C(=O)c2cc(F)c(-n3nc(CO)n(CC)c3=O)cc21 (single isomer, unassigned) [Example 39, (S *)-6-(4-Ethyl-3-(hydroxymethyl)-5-oxo-4,5-dihydro-1H-1,2,4-triazol-1-yl)-7-fluoro-2-(2-fluoro-5-methylphenyl)-4-(prop-1-en-2-yl)-3,4-dihydroisoquinolin-1(2H)-one] | 20 |  | 14.1 |
| C=C(C)C1CN(c2c(C)ccnc2Cl)C(=O)c2cc(F)c(-n3nc(CO)n(CC)c3=O)cc21 (racemic) [Example 45, Racemic-2-(2-chloro-4-methylpyridin-3-yl)-6-(4-ethyl-3-(hydroxymethyl)-5-oxo-4,5-dihydro-1H-1,2,4-triazol-1-yl)-7-fluoro-4-(prop-1-en-2-yl)-3,4-dihydroisoquinolin-1(2H)-one] | 7 | 6.98 |  |
| CCn1c(CO)nn(-c2cc3c(cc2F)C(=O)N(c2c(F)cccc2Cl)C(C)(C)N3C(C)C)c1=O [Example 3, 3-(2-Chloro-6-fluorophenyl)-7-(4-ethyl-3-(hydroxymethyl)-5-oxo-4,5-dihydro-1H-1,2,4-triazol-1-yl)-6-fluoro-1-isopropyl-2,2-dimethyl-2,3-dihydroquinazolin-4 (1H)-one] | 1040 | 440 |  |
| CCCN1CN(c2c(F)cccc2Cl)C(=O)c2cc(F)c(-n3nc(CO)n(CC)c3=O)cc21 [Example 22, 3-(2-Chloro-6-fluorophenyl)-7-(4-ethyl-3-(hydroxymethyl)-5-oxo-4,5-dihydro-1H-1,2,4-triazol-1-yl)-6-fluoro-1-propyl-2,3-dihydroquinazolin-4(1H)-one] | 4 | 5.49 |  |
| C=C(C)C1CN(c2c(C)ccnc2Cl)C(=O)c2cc(F)c(-n3nc(CO)n(CC)c3=O)cc21 (single isomer, unassigned) [Example 46, (S*)-2-(2-Chloro-4-methylpyridin-3-yl)-6-(4-ethyl-3-(hydroxymethyl)-5-oxo-4,5-dihydro-1H-1,2,4-triazol-1-yl)-7-fluoro-4-(prop-1-en-2-yl)-3,4-dihydroisoquinolin-1(2H)-one] |  |  | 5.46 |
| CCn1c(CO)nn(-c2cc3c(cc2F)C(=O)N(c2c(F)cccc2Cl)CN3C(C)C)c1=O [Example 1, 3-(2-Chloro-6-fluorophenyl)-7-(4-ethyl-3-(hydroxymethyl)-5-oxo-4,5-dihydro-1H-1,2,4-triazol-1-yl)-6-fluoro-1-isopropyl-2,3-dihydroquinazolin-4(1H)-one] |  | 0.85 |  |

The next lines start with the values.

| IC50 [1] [nM] | IC50 ([2]; Homo sapiens, MOLM-13, 72 h) [nM] | IC50 [2] [nM] | Compound |
| --- | --- | --- | --- |
| > 100 |  | 1160 | C=C(C)[C@H]1CN(c2c(C)cnc(OC)c2C)C(=O)c2cc(F)c(-n3nc(CO)n(CC)c3=O)cc21 (single isomer, unassigned; atropisomer 1) [Example 55, Atropisomer 1, (R *)-6-(4-Ethyl-3-(hydroxymethyl)-5-oxo-4,5-dihydro-1H-1,2,4-triazol-1-yl)-7-fluoro-2-(2-methoxy-3,5-dimethylpyridin-4-yl)-4-(prop-1-en-2-yl)-3,4-dihydroisoquinolin-1(2H)-one] |
|  |  | 298 | C=C(C)C1CN(c2c(C)ccnc2Cl)C(=O)c2cc(F)c(-n3nc(CO)n(CC)c3=O)cc21 (single isomer, unassigned) [Example 47, (R *)-2-(2-Chloro-4-methylpyridin-3-yl)-6-(4-ethyl-3-(hydroxymethyl)-5-oxo-4,5-dihydro-1H-1,2,4-triazol-1-yl)-7-fluoro-4-(prop-1-en-2-yl)-3,4-dihydroisoquinolin-1 (2H)-one] |
| > 100 |  | 101 | C=C(C)[C@@H]1CN(c2c(C)cnc(OC)c2C)C(=O)c2cc(F)c(-n3nc(CO)n(CC)c3=O)cc21 (single isomer, unassigned; atropisomer 2) [Example 56, Atropisomer 2, (S*)-6-(4-Ethyl-3-(hydroxymethyl)-5-oxo-4,5-dihydro-1H-1,2,4-triazol-1-yl)-7-fluoro-2-(2-methoxy-3,5-dimethylpyridin-4-yl)-4-(prop-1-en-2-yl)-3,4-dihydroisoquinolin-1(2H)-one] |
|  | 102 |  | CCn1c(CO)nn(-c2ccc3c(c2)C(C(C)C(F)(F)F)CN(c2ccccc2F)C3=O)c1=O (centres unmarked) [Example 74, 6-(4-Ethyl-3-(hydroxymethyl)-5-oxo-4,5-dihydro-1H-1,2,4-triazol-1-yl)-2-(2-fluorophenyl)-4-(1,1,1-trifluoropropan-2-yl)-3,4-dihydroisoquinolin-1(2H)-one] |
|  |  | 3.36 | C=C(C)[C@H]1CN(c2c(C)ccnc2OC)C(=O)c2cc(F)c(-n3nc(CO)n(CC)c3=O)cc21 (single isomer, unassigned; atropisomer 2) [Example 53, Atropisomer 2, (R*)-6-(4-Ethyl-3-(hydroxymethyl)-5-oxo-4,5-dihydro-1H-1,2,4-triazol-1-yl)-7-fluoro-2-(2-methoxy-4-methylpyridin-3-yl)-4-(prop-1-en-2-yl)-3,4-dihydroisoquinolin-1(2H)-one] |
|  |  | 20.7 | C=C(C)[C@H]1CN(c2c(C)cnc(OC)c2Cl)C(=O)c2cc(F)c(-n3nc(CO)n(CC)c3=O)cc21 (single isomer, unassigned; atropisomer 2) [Example 65, Atropisomer 2, (R*)-2-(3-Chloro-2-methoxy-5-methylpyridin-4-yl)-6-(4-ethyl-3-(hydroxymethyl)-5-oxo-4,5-dihydro-1H-1,2,4-triazol-1-yl)-7-fluoro-4-(prop-1-en-2-yl)-3,4-dihydroisoquinolin-1(2H)-one] |
|  | 16.1 |  | CCn1c(CO)nn(-c2ccc3c(c2)C(C(C)C(F)(F)F)CN(c2c(F)cccc2Cl)C3=O)c1=O (centres unmarked) [Example 75, 2-(2-Chloro-6-fluorophenyl)-6-(4-ethyl-3-(hydroxymethyl)-5-oxo-4,5-dihydro-1H-1,2,4-triazol-1-yl)-4-(1,1,1-trifluoropropan-2-yl)-3,4-dihydroisoquinolin-1(2H)-one] |
|  |  | 105 | C=C(C)[C@H]1CN(c2c(C)ccnc2OC)C(=O)c2cc(F)c(-n3nc(CO)n(CC)c3=O)cc21 (single isomer, unassigned; atropisomer 1) [Example 52, Atropisomer 1, (R *)-6-(4-Ethyl-3-(hydroxymethyl)-5-oxo-4,5-dihydro-1H-1,2,4-triazol-1-yl)-7-fluoro-2-(2-methoxy-4-methylpyridin-3-yl)-4-(prop-1-en-2-yl)-3,4-dihydroisoquinol in-1 (2H)-one] |
